Assay results: article PMC8402619 (Viruses, 2021)
pIC50: −log10 of the molar value.

Experiments:
OAT3 = molecular target: T1, OAT3 (Homo sapiens, UniProt Q8TCC7); experiment: Inhibition of transporter-mediated probe uptake in MDCKII-OAT3 cells; assay type: in vitro ADME
T1 construct: expressed in transfected cells; host or cells: MDCKII
T1 sequence (Q8TCC7 1-542): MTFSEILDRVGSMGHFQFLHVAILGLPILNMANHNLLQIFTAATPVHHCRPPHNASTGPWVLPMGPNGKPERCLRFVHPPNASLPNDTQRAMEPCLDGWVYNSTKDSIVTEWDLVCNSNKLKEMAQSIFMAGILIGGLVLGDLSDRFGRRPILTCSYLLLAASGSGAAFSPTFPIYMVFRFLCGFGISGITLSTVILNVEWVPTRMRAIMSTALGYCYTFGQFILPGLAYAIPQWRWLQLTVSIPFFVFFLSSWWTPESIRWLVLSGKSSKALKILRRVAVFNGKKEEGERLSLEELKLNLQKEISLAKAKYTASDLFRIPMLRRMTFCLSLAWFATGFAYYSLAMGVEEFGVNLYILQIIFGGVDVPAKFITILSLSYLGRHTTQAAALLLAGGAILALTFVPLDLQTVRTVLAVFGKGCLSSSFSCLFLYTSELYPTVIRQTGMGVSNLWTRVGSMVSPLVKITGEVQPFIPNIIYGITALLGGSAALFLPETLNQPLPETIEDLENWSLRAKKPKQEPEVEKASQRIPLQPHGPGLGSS

[1] = Renal clearance after 1 mg/kg intravenous, rabbit; assay type: in vivo, female Dutch Belted rabbits; details: 1 mg/kg intravenously
BCRP = molecular target: T2, BCRP (Homo sapiens, UniProt Q9UNQ0); experiment: Inhibition of BCRP-mediated methotrexate uptake in Sf9 membrane vesicles; assay type: in vitro ADME; design: purchased Thermo Fisher Scientific; host or cells: Sf9
T2 sequence (Q9UNQ0 1-655): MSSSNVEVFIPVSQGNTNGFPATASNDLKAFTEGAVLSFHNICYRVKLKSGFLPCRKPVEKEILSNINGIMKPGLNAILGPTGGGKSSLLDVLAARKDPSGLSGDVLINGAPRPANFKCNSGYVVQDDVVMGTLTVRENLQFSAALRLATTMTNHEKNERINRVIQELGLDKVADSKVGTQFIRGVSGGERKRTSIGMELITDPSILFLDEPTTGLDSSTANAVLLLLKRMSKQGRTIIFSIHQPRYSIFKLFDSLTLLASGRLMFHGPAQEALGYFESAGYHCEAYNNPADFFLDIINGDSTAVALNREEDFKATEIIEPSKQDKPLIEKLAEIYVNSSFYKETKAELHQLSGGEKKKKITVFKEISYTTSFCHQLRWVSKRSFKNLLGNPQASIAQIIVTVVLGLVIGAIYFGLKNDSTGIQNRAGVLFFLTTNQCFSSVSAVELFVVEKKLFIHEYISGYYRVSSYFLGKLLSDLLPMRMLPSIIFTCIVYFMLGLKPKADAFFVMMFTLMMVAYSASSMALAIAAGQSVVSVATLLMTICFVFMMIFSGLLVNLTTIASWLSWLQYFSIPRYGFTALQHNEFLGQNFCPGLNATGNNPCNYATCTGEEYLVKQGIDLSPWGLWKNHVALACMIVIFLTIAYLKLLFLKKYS

HIV-1 = details: cited from earlier work
MRP2 = molecular target: T3, MRP2 (Homo sapiens, UniProt Q92887); experiment: Inhibition of ATP-dependent probe uptake in Sf9 membrane vesicles; assay type: in vitro ADME; details: MRP2-mediated ATP-dependent uptake of ethacrynic acid glutathione conjugate
T3 construct: purchased Thermo Fisher Scientific; host or cells: Sf9
T3 sequence (Q92887 whole entry): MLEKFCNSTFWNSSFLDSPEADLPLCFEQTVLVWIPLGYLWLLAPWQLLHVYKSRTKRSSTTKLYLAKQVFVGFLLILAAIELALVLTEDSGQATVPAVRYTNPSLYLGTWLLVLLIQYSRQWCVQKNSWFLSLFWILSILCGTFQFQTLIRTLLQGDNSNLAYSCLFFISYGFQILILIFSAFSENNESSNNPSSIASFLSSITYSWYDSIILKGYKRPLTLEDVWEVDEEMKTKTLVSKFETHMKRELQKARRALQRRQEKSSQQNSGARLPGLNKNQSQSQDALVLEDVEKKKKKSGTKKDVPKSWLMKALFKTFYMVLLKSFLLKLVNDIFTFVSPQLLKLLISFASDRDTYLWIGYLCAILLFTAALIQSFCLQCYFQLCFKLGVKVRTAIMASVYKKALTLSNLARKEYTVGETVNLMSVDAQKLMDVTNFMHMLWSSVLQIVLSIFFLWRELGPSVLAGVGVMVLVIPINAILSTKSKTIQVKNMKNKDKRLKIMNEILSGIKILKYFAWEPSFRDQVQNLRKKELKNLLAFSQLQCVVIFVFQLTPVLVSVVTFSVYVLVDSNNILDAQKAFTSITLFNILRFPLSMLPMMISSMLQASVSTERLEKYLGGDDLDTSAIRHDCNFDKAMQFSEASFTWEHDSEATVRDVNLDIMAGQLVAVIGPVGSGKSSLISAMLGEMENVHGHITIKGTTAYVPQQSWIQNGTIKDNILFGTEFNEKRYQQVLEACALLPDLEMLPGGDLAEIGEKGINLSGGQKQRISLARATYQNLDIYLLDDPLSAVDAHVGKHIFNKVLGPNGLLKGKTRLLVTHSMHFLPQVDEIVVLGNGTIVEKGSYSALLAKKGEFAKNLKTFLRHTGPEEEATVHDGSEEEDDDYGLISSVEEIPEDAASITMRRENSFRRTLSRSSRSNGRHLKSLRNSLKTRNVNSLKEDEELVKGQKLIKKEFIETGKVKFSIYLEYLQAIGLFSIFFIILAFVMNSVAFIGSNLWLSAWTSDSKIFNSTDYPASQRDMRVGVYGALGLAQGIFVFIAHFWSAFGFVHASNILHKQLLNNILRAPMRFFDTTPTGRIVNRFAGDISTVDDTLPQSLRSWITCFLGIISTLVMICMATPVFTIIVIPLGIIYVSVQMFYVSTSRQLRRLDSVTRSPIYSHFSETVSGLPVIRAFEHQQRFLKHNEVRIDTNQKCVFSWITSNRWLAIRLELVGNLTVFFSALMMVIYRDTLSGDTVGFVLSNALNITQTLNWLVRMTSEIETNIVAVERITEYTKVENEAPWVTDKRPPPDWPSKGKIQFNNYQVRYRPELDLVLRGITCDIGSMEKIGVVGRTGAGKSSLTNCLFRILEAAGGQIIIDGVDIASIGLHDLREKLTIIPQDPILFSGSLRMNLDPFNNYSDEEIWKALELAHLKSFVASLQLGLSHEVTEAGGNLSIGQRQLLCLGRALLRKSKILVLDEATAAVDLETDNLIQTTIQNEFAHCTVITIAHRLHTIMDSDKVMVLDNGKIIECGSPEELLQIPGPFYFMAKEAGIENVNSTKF

MATE2K = molecular target: T4, MATE2K (Homo sapiens, UniProt Q86VL8); experiment: Islatravir uptake as substrate, MDCKII vs MDCKII-MATE2K cells; assay type: in vitro ADME
T4 construct: expressed in transfected cells; host or cells: MDCKII
T4 sequence (Q86VL8 1-566 isoform Q86VL8-3): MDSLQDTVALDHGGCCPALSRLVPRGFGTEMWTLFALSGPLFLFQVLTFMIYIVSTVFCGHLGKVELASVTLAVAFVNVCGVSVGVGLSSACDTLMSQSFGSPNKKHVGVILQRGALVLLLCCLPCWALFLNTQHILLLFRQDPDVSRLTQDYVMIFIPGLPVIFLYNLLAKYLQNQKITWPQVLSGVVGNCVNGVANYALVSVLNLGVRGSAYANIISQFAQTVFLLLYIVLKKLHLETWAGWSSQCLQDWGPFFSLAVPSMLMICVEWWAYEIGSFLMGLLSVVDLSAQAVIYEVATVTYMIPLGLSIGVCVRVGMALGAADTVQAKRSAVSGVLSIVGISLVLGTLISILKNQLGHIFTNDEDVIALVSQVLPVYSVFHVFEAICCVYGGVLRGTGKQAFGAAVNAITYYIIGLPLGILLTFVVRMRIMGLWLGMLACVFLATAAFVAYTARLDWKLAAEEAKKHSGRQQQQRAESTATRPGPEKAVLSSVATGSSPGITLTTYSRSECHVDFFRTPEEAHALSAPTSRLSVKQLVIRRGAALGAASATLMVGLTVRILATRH

OCT1 = molecular target: T5, OCT1 (Homo sapiens, UniProt O15245); experiment: Inhibition of transporter-mediated probe uptake in CHO-K1-OCT1 cells; assay type: in vitro ADME
T5 construct: expressed in transfected cells; host or cells: CHO-K1
T5 sequence (O15245 1-554): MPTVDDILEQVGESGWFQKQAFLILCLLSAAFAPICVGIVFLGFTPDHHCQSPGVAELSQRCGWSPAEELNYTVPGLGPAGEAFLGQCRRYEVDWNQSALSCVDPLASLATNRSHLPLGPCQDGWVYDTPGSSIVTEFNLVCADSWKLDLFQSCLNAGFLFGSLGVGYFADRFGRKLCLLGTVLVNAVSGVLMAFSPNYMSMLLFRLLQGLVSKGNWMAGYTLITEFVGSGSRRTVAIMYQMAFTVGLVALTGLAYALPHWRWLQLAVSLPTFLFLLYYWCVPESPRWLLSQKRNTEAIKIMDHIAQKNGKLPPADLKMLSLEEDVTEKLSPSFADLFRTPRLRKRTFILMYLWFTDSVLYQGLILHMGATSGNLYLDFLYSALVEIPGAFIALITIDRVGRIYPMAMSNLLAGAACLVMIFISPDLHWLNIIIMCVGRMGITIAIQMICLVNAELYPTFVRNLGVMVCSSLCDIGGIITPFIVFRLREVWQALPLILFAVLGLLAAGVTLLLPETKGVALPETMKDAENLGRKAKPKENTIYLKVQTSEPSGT

MDR1 P-gp = MDR1 P-gp (Homo sapiens, UniProt P08183); assay type: in vitro ADME; design: expressed in transfected cells; host or cells: LLC-PK1
MDR1 P-gp, sequence (P08183 whole entry): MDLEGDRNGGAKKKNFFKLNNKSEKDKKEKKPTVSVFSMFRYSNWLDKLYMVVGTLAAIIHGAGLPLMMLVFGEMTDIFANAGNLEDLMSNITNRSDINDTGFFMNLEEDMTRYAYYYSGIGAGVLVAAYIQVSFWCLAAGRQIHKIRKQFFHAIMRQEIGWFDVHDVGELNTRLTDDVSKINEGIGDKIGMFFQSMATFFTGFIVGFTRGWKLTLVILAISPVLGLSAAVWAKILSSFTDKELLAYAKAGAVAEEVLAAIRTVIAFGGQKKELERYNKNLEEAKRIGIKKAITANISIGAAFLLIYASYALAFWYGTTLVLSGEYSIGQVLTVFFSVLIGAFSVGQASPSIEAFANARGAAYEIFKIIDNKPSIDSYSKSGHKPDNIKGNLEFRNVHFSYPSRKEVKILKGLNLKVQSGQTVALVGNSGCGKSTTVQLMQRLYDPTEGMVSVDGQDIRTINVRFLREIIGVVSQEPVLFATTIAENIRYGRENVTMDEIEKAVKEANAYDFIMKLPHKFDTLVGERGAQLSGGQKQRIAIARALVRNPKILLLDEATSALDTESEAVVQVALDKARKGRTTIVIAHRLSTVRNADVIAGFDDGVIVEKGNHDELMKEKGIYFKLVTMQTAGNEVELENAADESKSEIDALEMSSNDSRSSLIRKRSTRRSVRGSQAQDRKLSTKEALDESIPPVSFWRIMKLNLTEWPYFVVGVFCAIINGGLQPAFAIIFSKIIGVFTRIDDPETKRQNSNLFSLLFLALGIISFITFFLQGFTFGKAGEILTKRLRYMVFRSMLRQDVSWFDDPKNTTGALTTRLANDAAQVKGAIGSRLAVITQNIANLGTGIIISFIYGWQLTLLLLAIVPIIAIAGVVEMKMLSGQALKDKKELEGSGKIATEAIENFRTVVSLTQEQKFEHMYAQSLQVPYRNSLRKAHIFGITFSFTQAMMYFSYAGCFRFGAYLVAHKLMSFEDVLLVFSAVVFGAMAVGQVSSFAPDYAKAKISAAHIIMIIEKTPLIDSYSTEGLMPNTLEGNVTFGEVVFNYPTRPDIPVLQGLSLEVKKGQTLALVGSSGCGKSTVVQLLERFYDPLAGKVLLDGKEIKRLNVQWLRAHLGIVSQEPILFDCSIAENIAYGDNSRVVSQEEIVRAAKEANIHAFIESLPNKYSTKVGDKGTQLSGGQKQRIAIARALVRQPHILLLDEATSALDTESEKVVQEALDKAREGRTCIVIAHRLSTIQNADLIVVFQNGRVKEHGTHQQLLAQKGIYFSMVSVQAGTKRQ

Structure (SMILES): C#C[C@]1(CO)O[C@@H](n2cnc3c(N)nc(F)nc32)C[C@@H]1O [Islatravir, 4′-Ethynyl-2-fluoro-2′-deoxyadenosine]
- inhibition at 100 µM (OAT3; MDCKII-OAT3 cells, probe estrone sulfate, 100 µM islatravir): 31%
- pIC50 (OAT3; OAT3-mediated estrone sulfate uptake, read-out: Islatravir IC50): < 4.00
- Maximum Unbound Plasma Concentration (Imax,u) to IC50 Ratio (OAT3; OAT3, 60 mg, Cmax 1.01 µM, fu,p 0.96): <0.010 µM
- DDI Potential (OAT3; OAT3 inhibition, FDA, EMA, PMDA guidance): Low risk
- Renal Excretion (% Total Plasma Clearance) [1]: 31%
- CL renal ([1]; female, Dutch Belted, plasma and urine, iv, urine 0-48 h): 5.3 mL/min/kg
- DDI Potential (BCRP; BCRP inhibition, FDA, EMA, PMDA guidance): Low risk
- pIC50 (BCRP; BCRP-mediated methotrexate uptake, read-out: Islatravir IC50): < 4.00
- Maximum Unbound Plasma Concentration (Imax,u) to IC50 Ratio (BCRP; BCRP, 60 mg, Cmax 1.01 µM, fu,p 0.96): <0.010 µM
- Intestinal Concentration (Igut) to IC50 Ratio (BCRP; BCRP, Igut = 60 mg/250 mL = 818 µM): <8.2 µM
- inhibition at 5 min, 100 µM (BCRP; human, BCRP-containing Sf9 membrane vesicles, probe [3H]methotrexate, 100 µM islatravir, membrane vesicle assay): 35%
- tolerability (HIV-1; participants with and without HIV across a range of doses): generally well tolerated
- duration of viral load reduction maintained (HIV-1; single administration at a dose as low as 0.5 mg): 7 days
- duration of viral load suppression (HIV-1; treatment-naïve PLWH, oral doses between 0.5 and 30 mg): at least 7 days
- pIC50 (MRP2): < 4.00
- Islatravir Uptake Control Cells (MATE2K; MATE2K row, MDCKII control cells, 2 µM [14C]islatravir, 20 min, mean ± SD, n = 3): 3.12 ± 0.17 pmole/10^6 Cells
- Conclusions (MATE2K; MATE2K substrate assessment): Non-substrate
- Fold-Difference (MATE2K; MATE2K, uptake into transporter-expressing cells to control cells, 20 min): 1.14
- Islatravir Uptake Transporter-Expressing Cells (MATE2K; MDCKII-MATE2K, 2 µM [14C]islatravir, 20 min, mean ± SD, n = 3): 3.56 ± 0.17 pmole/10^6 Cells
- pIC50 (OCT1; OCT1-mediated uptake of metformin, read-out: Islatravir IC50): < 3.52
- Maximum Unbound Inlet Concentration (Iin,max,u) to IC50 Ratio (OCT1; OCT1, 60 mg dose): <0.035
- DDI Potential (OCT1; OCT1 inhibition, FDA, EMA, PMDA guidance): Low risk
- DDI Potential (MDR1 P-gp; MDR1 P-gp inhibition, FDA, EMA, PMDA guidance): Low risk
- pIC50 (MDR1 P-gp; MDR1 P-gp-mediated digoxin transport, read-out: Islatravir IC50): < 3.70
- Maximum Unbound Plasma Concentration (Imax,u) to IC50 Ratio (MDR1 P-gp; MDR1 P-gp, 60 mg, Cmax 1.01 µM, fu,p 0.96): <0.005 µM
- Intestinal Concentration (Igut) to IC50 Ratio (MDR1 P-gp; MDR1 P-gp, Igut = 60 mg/250 mL = 818 µM): <4.1 µM
